“Also recorded” adds a separate entry of the source.
Legend:
[1] = system: acute heart failure patients; conditions: cited from earlier work
[2] = system: spontaneously hypertensive rat (SHR); assay: Cardiac interstitial fibrosis, Masson's Trichrome staining, SHR; assay type: in vivo; conditions: 10 mg NaBr per kg AIN-76a, 10 weeks, p<0.0001
Experimental: (§1) AIN-76A was base diet for all animals. […] Fibrosis determined from 5 μm tissue sections stained with Masson's Trichrome. […] Approximately 25-30 images were collected and processed per animal.
Following conclusion of the in vivo study, rat hearts were formalin-fixed, paraffin-embedded, and 5 μm-thick sections were obtained for histochemical analysis.

[3] = system: salt sensitive Dahl rats; assay: Cardiac interstitial fibrosis, Masson's Trichrome staining, Dahl rats on high salt diet; assay type: in vivo, rat; conditions: 300 mg NaBr per kg AIN-76a+8% NaCl, 10 weeks, p<0.0001
Experimental: as §1

[4] = system: spontaneously hypertensive rat (SHR); assay: Blood pressure and heart rate (tail cuff) after single IP administration of NaBr in SHR; assay type: in vivo; conditions: single IP 154.5 μg NaBr per kg
Experimental: (A) In 10 week-old male SHR, single administration of Br^− reduced systolic and diastolic blood pressures compared to saline control. […] (C-D) Measured values for systolic (C) and diastolic (D) blood pressure, denoting statistical significance where achieved. 154.5 μg NaBr per kg rat body weight injected via IP. n=8 in Br Treatment group, =5 in saline control. BP & HR measured via tail cuff. *:p<0.05, T test.
(§2) The inventors next asked whether Br^− exerts any short-term activity in addition to the improved cardiac fibrosis noted after 10 weeks administration. Returning to the SHR preclinical model of disease, the inventors specifically asked whether Br^− administration modulates certain biomarkers associated with cardiovascular disease at one day post-administration. To this end, Br^− was administered to 8 SHR via intraperitoneal (IP) injection with an estimated 0.154 μg NaBr per gram body weight. For control, 8 SHR were administered saline via IP injection containing an estimated 4 ng NaBr per gram body weight. […] Moreover, the inventors believe that Br^− achieves its cardiovascular and renal therapeutic activities in part via modulation of natriuretic peptide signaling.

[5] = humans, in some circumstances, due to renal reabsorption; cited from earlier work
[6] = in vivo; cited from earlier work
[7] = dogs that do not respond to an initial course of Br^− treatment; cited from earlier work
[8] = system: salt sensitive Dahl rats; assay: Survival of salt sensitive Dahl rats on high salt (8% NaCl) diet with or without NaBr, 10 week study; assay type: in vivo, rat
Experimental: Control rats received AIN76A without supplemental chloride or bromide. 9 rats per study arm.
Dahl rats were administered a base diet of AIN76A with 8% NaCl, while a parallel arm was administered AIN76A with 8% NaCl and 300 mg of NaBr per kg of food. Mortality events were counted over the 10 week study.

[9] = Serum Br^− concentration in Dahl rats after 10 weeks on diet (mass spectrometry)
Experimental: (FIG. 2A) Serum Br^− concentrations from rats fed a daily diet over 10 weeks of “AIN-76A”, “AIN-76A+8% NaCl”, “AIN-76A+Br”, or “AIN-76A+8% NaCl+Br”. […] The two diets containing 8% NaCl (eg. “AIN-76A+8% NaCl” and “AIN-76A+8% NaCl+Br”) were fed to Dahl rats while the remaining two diets (eg. “AIN-76A” and “AIN-76A+Br”) were fed to SHR, as indicated in panel A. Serum Br^− measurements were determined using mass spectrometry.
Thus, Dahl rats were fed a diet supplemented with 8% NaCl (AIN76A base diet) over the course of 10 weeks.
To test the invention, another group of Dahl rats were administered AIN76A supplemented with 8% NaCl and 300 mg NaBr per kg of food. Considering that the rat body weights increased from around 300 g to around 400 g over the course of the study, and assuming that the rats ate a relatively constant amount of 25 g of food per day, the daily consumption of Br^− ranged from approximately 14.6 to 19.4 mg Br^− per kg body weight, in accordance with the invention.

[10] = system: spontaneously hypertensive rat (SHR); assay: 10 week daily dietary Br^− administration in SHR disease model (heart weight, survival, urinary protein); assay type: in vivo
Experimental: (FIG. 5 A-B) Heart and kidney weights from 10 week repeat dosing study in SHR model. Br^− administered daily via diet, with AIN-76a as base diet. WKY served as genetic control. Both kidneys per animal weighed together. […] (FIG. 5C-D) Heart and kidney weights from panels A-B normalized to body weight. […] (FIG. 5E) Rats were administered a diet of AIN76A with or without 10 mg NaBr per kg feed (“SHR” and “SHR+Br” study arms, […]). Survival probability was calculated between SHR rats receiving dietary Br— and SHR rats receiving AIN76A control diet over a 10 week study period. As a second control, Wistar Kyoto (WKY) rats were fed AIN76A control diet over the same period. 8 rats per study arm.
Eight SHR animals received AIN76A diet for 10 weeks while 8 SHR animals received AIN76A supplemented with 10 mg NaBr/kg diet.

[11] = system: brain natriuretic peptide (BNP); assay: Serum BNP by ELISA after single IP administration of NaBr in SHR; assay type: in vivo, rat; conditions: single IP 154.5 μg NaBr per kg, one day post-administration, p<0.05
Experimental: 154.5 μg NaBr per kg rat body weight injected via IP. n=8 in Br Treatment group, =5 in saline control. Baseline serum collection occurred two days prior to treatment. *: p<0.05, T test.
as §2

[12] = Serum Br^− concentration in spontaneously hypertensive rats (SHR) after 10 weeks on diet, safety
Experimental: (FIG. 2A) Serum Br^− concentrations from rats fed a daily diet over 10 weeks of “AIN-76A”, “AIN-76A+8% NaCl”, “AIN-76A+Br”, or “AIN-76A+8% NaCl+Br”. Salt sensitive Dahl rats as well as Spontaneously Hypertensive Rats (SHR) were used in these studies. The two diets containing 8% NaCl (eg. “AIN-76A+8% NaCl” and “AIN-76A+8% NaCl+Br”) were fed to Dahl rats while the remaining two diets (eg. “AIN-76A” and “AIN-76A+Br”) were fed to SHR, as indicated in panel A. Serum Br^− measurements were determined using mass spectrometry.
Rats were administered 10 mg of NaBr per kg of AIN76A diet for 10 weeks. At the end of the study, serum Br^− levels in Br-treated rats were compared to serum Br^− levels in SHR on AIN76A as well as Wistar rats on AIN76A.

[13] = acute decompensated heart failure (Sackner-Bernstein et al. 2005)

nesiritide
mortality [1, 13]: increased mortality
renal function [1, 13]: worsening renal function

CC[C@H](C)[C@@H]1NC(=O)[C@H](CCCNC(=N)N)NC(=O)[C@H](CC(=O)O)NC(=O)[C@H](CCSC)NC(=O)[C@H](CCCNC(=N)N)NC(=O)CNC(=O)CNC(=O)[C@H](Cc2ccccc2)NC(=O)[C@@H](NC(=O)[C@H](CO)NC(=O)[C@H](CO)NC(=O)[C@H](CCCNC(=N)N)NC(=O)[C@H](CCCNC(=N)N)NC(=O)[C@H](CC(C)C)NC(=O)[C@@H](N)CO)CSSC[C@@H](C(=O)N[C@@H](CC(N)=O)C(=O)N[C@@H](CO)C(=O)N[C@@H](Cc2ccccc2)C(=O)N[C@@H](CCCNC(=N)N)C(=O)N[C@@H](Cc2ccc(O)cc2)C(=O)O)NC(=O)CNC(=O)[C@H](CC(C)C)NC(=O)CNC(=O)[C@H](CO)NC(=O)[C@H](CCC(N)=O)NC(=O)[C@H](C)NC(=O)CNC1=O [carperitide]
in-hospital mortality ([1]; acute heart failure patients in Japan (Matsue et al. 2015)): increased in-hospital mortality

[Br-].[Na+] [Br^−, sodium bromide]
cardiac fibrosis (Masson's Trichrome blue staining) [2]: dramatic reduction in blue staining; also recorded: less cardiac fibrosis
cardiac fibrosis (Masson's Trichrome blue staining) [3]: less cardiac fibrosis
systolic blood pressure ([4]; one day post-administration, vs saline control): statistically significant reductions; also recorded: reduced
heart rate ([4]; p=0.052): possible reduction
diastolic blood pressure ([4]; vs saline control): reduced
half-life [5]: ≥ 170 h
circulating Br^− level at which the anti-epilepsy effect occurs [6]: > 6 mM
therapeutic serum Br^− for sedative effect [7]: above 25 mM
survival compared to High Salt alone (log rank test) ([8]; 9 rats per arm, p<0.001): significantly improved survival
survival probability ([8]; AIN76A+8% NaCl with or without 300 mg NaBr per kg feed, 10 weeks): 67%
mean serum Br^− ([9]; 10 weeks on diet, end of study): 246.50 µM
toxicity assessment of serum Br^− concentrations ([9]; daily diet over 10 weeks): well below those levels required to induce bromide-associated toxicity
heart weight (absolute) ([10]; 10 mg NaBr per kg AIN-76a, 10 weeks, vs SHR on AIN-76a alone, p<0.05): significantly reduced; also recorded: Statistically significant reduction
treatment-induced mortality or electrolyte disturbances ([10]; 10 mg NaBr/kg diet, 10 weeks): No treatment-induced mortality or electrolyte disturbances
survival probability among groups ([10]; 10 week study, 8 rats per arm): no statistical difference in survival
heart weight normalized to body weight ([10]; 10 weeks): this trend was preserved; also recorded: Trends observed in absolute weights are preserved
urinary microprotein/creatinine ratio (urinary protein levels) ([10]; after one day on study diet, persisted to end of study): significantly lower; also recorded: significantly reduced
serum concentration of BNP peptide [11]: statistically significant increase; also recorded: significantly modulated
mean serum Br^− ([12]; 10 mg NaBr per kg AIN76A diet, 10 weeks): 281.7 µM
toxicity assessment of serum Br^− concentrations ([12]; daily diet over 10 weeks): below the toxicity threshold

Source: patent US20190183927A1, “MEDICAL AND NUTRITIONAL COMPOSITIONS AND METHODS OF USE” (Sulfilatec, Inc., priority 2016, published 2019)
